13 compounds from patent US6670307B2, “1,3-oxazoline and 1,3-thiazoline derivatives, their preparation, and their use as pesticides” (Hoechst Schering AgrEvo GmbH, priority 1998, dated 2003) can be followed below.

One series concerns Lucilia cuprina. Put plainly: Effect on the larvae of the copperbottle Lucilia cuprina (treated nutrient medium). Format: in vivo. The following applies: for mortality at 100 ppm: Lucilia cuprina, 72 h, read-out: mortality in the fly larvae; for mortality in the fly larvae: 100 ppm in larval nutrient medium of ground mutton, monitored over 72 hours. On the procedure: Effect on the Larvae of the Copperbottle Lucilia cuprina
In a sample container, 20 recently hatched larvae of the copperbottle Lucilia cuprina were placed on a larval nutrient medium of ground mutton which contained the test substance in a concentration of 100 ppm. Larval growth on the nutrient medium is monitored over 72 hours up to larva 3. At a concentration of 100 ppm (based on the active substance content), a 100% mortality in the fly larvae employed was shown by the preparations of Examples 2, 3, 4, 5, 105, 106.

For another series, the system named is Aphis fabae. Put plainly: Effect on the aphid Aphis fabae (spray on infested field beans). Format: in vivo. The following applies: 72 h, read-out: mortality of the aphids. On the procedure:
Effect on the Aphid Aphis fabae
Field beans (Vicia faba) which were densly populated with the black bean aphid (Aphis fabae) were sprayed to runoff point with an aqueous solution of the formulated preparation to be tested. The mortality of the aphids was determined after 3 days. At a concentration of 300 ppm (based on the active substance content), a 90-100% mortality was shown by the preparations of Examples 1, 2, 3, 4, 7, 8, 152.

Series [1] concerns Diabrotica undecimpunctata. Put plainly: Effect on the corn budworm Diabrotica undecimpunctata (L2 larvae, soil application). Format: in vivo. The following applies: for mortality at 300 ppm: Diabrotica undecimpunctata, soil, 120 h, read-out: mortality of the test animals; for mortality of the test animals: 300 ppm (based on active substance content), 1 ml pipetted onto soil, L2 larvae, after 5 days at 21° C. The method, then: Effect on the Corn Budworm Diabrotica undecimpunctata
Maize seed was pregerminated for 6 hours while submerged in water, then placed into 10-ml glass tubes and covered with 2 ml of soil in each case. After 1 ml of water had been added, the plants remained in the glass tubes at 21° C. until plant length was approx. 3 cm. 10 L2 larvae of the corn budworm (Diabrotica undecimpunctata) were then introduced into each tube on the soil. Two hours later, 1 ml of an aqueous solution of the formulated preparation to be tested were pipetted onto the soil surface in the tubes. After storage for 5 days under laboratory conditions at 21° C., the soil and root sections were examined for live Diabrotica larvae and the mortality was determined. At a concentration of 300 ppm (based on the active substance content), a 100% mortality of the test animals employed was shown by the preparations of Example 2, 3, 5, 9, 19, 39.

For the next series, the system named is Tetranychus urticae. Put plainly: Effect on the spider mites Tetranychus urticae (spray on infested bean plants). Format: in vivo. To be noted: 168 h, read-out: mortality of all mite stages. The method, then: Effect on the Spider Mites Tetranychus urticae
Bean plants (Phaseolus vulgaris) which were severely infested with a complete population of spider mites (Tetranychus urticae) were sprayed to runoff point with an aqueous solution of the formulated preparation to be tested. The mortality of all mite stages was determined after 7 days. At a concentration of 300 ppm (based on active substance content), a 90-100% mortality was shown by the preparations of Examples 1, 2, 3, 4, 7, 8, 9, 14, 18, 21, 31, 40, 41, 43, 44, 47, 51, 106, 152 and 153.

A further series deals with Heliothis virescens. Put plainly: Effect on the egg-larval stage of Heliothis virescens. In kind it is in vivo. The following applies: 144 h, read-out: mortality of eggs and any larvae hatched from them. On the procedure: Effect on the Egg-Larval Stage of Heliothis virescens
A Petri dish whose bottom was covered with filter paper and which contained approx. 5 ml of nutrient medium was prepared. Filter paper sections containing approx. 30 24-hour-old eggs of the tobacco budworm (Heliothis virescens) were immersed for 5 seconds into an aqueous solution of the formulated preparation to be tested and subsequently placed in the Petri dish. A further 200 μl of the aqueous solution were distributed over the nutrient medium. After the Petri dish had been sealed, it was stored in a controlled-environment cabinet at approx. 25° C. After 6 days' storage, the mortality of the preparation on the eggs and any larvae hatched from them was determined. At a concentration of 300 ppm (based on the active substance content), a 90-100% mortality was caused by the preparations of Examples 1, 2, 3, 4, 5, 6, 7, 8, 14, 17, 21, 22, 23, 34, 35, 39, 40, 43, 44, 106.

Another series deals with Ctenocephalides felis. Put plainly: Effect on developmental stages of the cat flea Ctenocephalides felis (treated larval medium). In kind it is in vivo. To be noted: 1000 ppm in larval nutrient medium, approx. 30 flea eggs, read-out: mortality (hatching of flea larvae and development into pupae and adult fleas). The text has this: Effect on Developmental Stages of the Cat Flea Ctenocephalides felis
The larval nutrient medium of the cat flea, composed of equal parts of blood meal and quartz sand, was admixed with the test substance at a concentration of 1000 ppm. Approx. 30 flea eggs freshly obtained from a breeding colony were transferred onto the medium. To assess the affect of the preparation, hatching of the flea larvae and their development into pupae and adult fleas was observed. A mortality of 100% was caused by the test substances of Examples 2, 3 and 4.

The test system of another series is Spodoptera litoralis. Put plainly: Effect on the butterfly larva Spodoptera litoralis (L4 larvae, Petri dish spray). In kind it is in vivo. The following applies: 96 h, read-out: larval mortality. On the procedure: Effect on the Butterfly Larva Spodoptera litoralis
Ten L4 larvae of the Egyptian cotton leafworm (Spodoptera litoralis) were introduced into a Petri dish whose bottom was covered with filter paper and contained approx. 5 ml of nutrient medium. Filter paper, nutrient paper and the larvae which had been introduced were then sprayed with an aqueous solution of the formulated preparation to be tested. The Petri dish was subsequently sealed with a lid. After 4 days' storage at approx. 23° C., the effect of the preparation on the larvae was determined. At a concentration of 300 ppm (based on the active substance content), a 90-100% larval mortality was caused by the preparations of Examples 3, 4, 22, 105, 106.

What is called mortality is the share of the test organisms that died. As usually defined, the melting point is the temperature, or range, at which the solid turns liquid.

With `CCOc1ccc(-c2ccc(C3COC(c4c(F)cccc4F)=N3)cc2)cn1` (stereo not shown) [Example 2, 2-(2,6-Difluorophenyl)-4-[4-(2-ethoxypyridin-5-yl)phenyl]oxazoline], in the series on Lucilia cuprina, the mortality at 100 ppm was found to be 100%. Besides, the mortality at 300 ppm in the series on Aphis fabae was 90 to 100%; in series [1], 100%; in the series with Tetranychus urticae it was 90 to 100%; in the series with Heliothis virescens it was 90 to 100%. Also, the mortality at 1000 ppm with Ctenocephalides felis is 100%.
With `Fc1cccc(F)c1C1=NC(c2ccc(-c3ccc(OCC(F)(F)F)nc3)cc2)CO1` (stereo not shown) [Example 3, 2-(2,6-Difluorophenyl)-4-[4-(2-trifluoroethoxypyridin-5-yl)phenyl]oxazoline], the mortality at 300 ppm is 90 to 100% in the series with Spodoptera litoralis; 90 to 100% in the series on Aphis fabae; 100% in series [1]; 90 to 100% in the series on Tetranychus urticae; 90 to 100% in the series on Heliothis virescens. Besides, the mortality at 100 ppm with Lucilia cuprina was determined as 100%. Further, the mortality at 1000 ppm with Ctenocephalides felis amounted to 100%.
For the compound `CCCOc1ccc(-c2ccc(C3COC(c4c(F)cccc4F)=N3)cc2)cn1` (stereo not shown) [Example 4, 2-(2,6-Difluorophenyl)-4-[4-(2-n-propyloxypyridin-5-yl)phenyl]oxazoline], the mortality at 300 ppm in the series with Spodoptera litoralis, in the series on Aphis fabae, in the series on Tetranychus urticae and with Heliothis virescens was 90 to 100% throughout. Further, the mortality at 100 ppm in the series with Lucilia cuprina was 100%. In addition, in the series on Ctenocephalides felis, the mortality at 1000 ppm amounted to 100%.
As for `CC(C)Oc1ccc(-c2ccc(C3COC(c4c(F)cccc4F)=N3)cc2)cn1` (stereo not shown) [Example 5], the “mortality in the fly larvae” value in the series with Lucilia cuprina was determined as 100%. Besides, the “mortality of the test animals” value in series [1] is given as 100%.
As for `CC(C)COc1ccc(-c2ccc(C3COC(c4c(F)cccc4F)=N3)cc2)cn1` (stereo not shown) [Example 8, 2-(2,6-Difluorophenyl)-4-[4-(2-isobutyloxypyridin-5-yl)phenyl]oxazoline], the mortality at 300 ppm with Aphis fabae, in the series with Tetranychus urticae and with Heliothis virescens was 90 to 100% throughout.
Consider `CCC(C)Oc1ccc(-c2ccc(C3COC(c4c(F)cccc4F)=N3)cc2)cn1` (stereo not shown) [Example 9], for which, in series [1], the “mortality of the test animals” value is 100%.
As to `Fc1cccc(F)c1C1=NC(c2ccc(-c3ccc(OCC(F)(F)F)nc3)cc2)CS1` (stereo not shown) [Example 19, 2-(2,6-Difluorophenyl)-4-[4-(2-trifluoroethoxypyridin-5-yl)phenyl]thiazoline], the mortality at 300 ppm in series [1] stood at 100%.
As to `CCCc1ccc(-c2ccc(C3COC(c4c(F)cccc4F)=N3)cc2)cn1` (stereo not shown) [Example 34, 2-(2,6-Difluorophenyl)-4-[4-(2-n-propylpyridin-5-yl)phenyl]oxazoline], the mortality at 300 ppm with Heliothis virescens lay in the range of 90 to 100%.
As for `CCSc1ccc(-c2ccc(C3COC(c4c(F)cccc4F)=N3)cc2)cn1` (stereo not shown) [Example 39, 2-(2,6-Difluorophenyl)-4-[4-(2-ethylthiopyridin-5-yl)phenyl]oxazoline], the figures for the mortality at 300 ppm (in series [1]; in the series on Heliothis virescens) were 100% and 90 to 100%, respectively.
On to `CC[S+]([O-])c1ccc(-c2ccc(C3COC(c4c(F)cccc4F)=N3)cc2)cn1` (stereo not shown) [Example 40, 2-(2,6-Difluorophenyl)-4-[4-(2-ethylsulfinylpyridin-5-yl)phenyl]oxazoline], for which the mortality at 300 ppm in the series on Tetranychus urticae and with Heliothis virescens was 90 to 100% in each case.
For `CCOc1ccc(-c2ccc(C3COC(c4c(F)cccc4F)=N3)c(OC)c2)cn1` (stereo not shown) [Example 105], the “mortality in the fly larvae” value with Lucilia cuprina turned out to be 100%.
Turning to `CCOc1cc(-c2ccc(OCC(F)(F)F)nc2)ccc1C1COC(c2c(F)cccc2F)=N1` (stereo not shown) [Example 106, 2-(2,6-Difluorophenyl)-4-[2-ethoxy-4-(2-trifluoroethoxypyridin-5-yl)phenyl]-oxazoline], the mortality at 300 ppm with Spodoptera litoralis, with Tetranychus urticae and in the series with Heliothis virescens was 90 to 100% in each case. Moreover, in the series with Lucilia cuprina, the mortality at 100 ppm stood at 100%.
Regarding `Fc1ccccc1C1=NC(c2ccc(-c3ccc(OCC(F)(F)F)nc3)cc2)CO1` (stereo not shown) [Example 402, 2-(2-Fluorophenyl)-4-[4-(2-trifluoroethoxypyridin-5-yl)phenyl]oxazoline], the melting point amounted to 101 °C.
